The target of test [1] is Cyclin-dependent kinase 1 (Homo sapiens, UniProt P06493). As to the kind of experiment: Inhibition of CDK1 using 100 uM ATP.
For test [2], the target named is Glycogen synthase kinase-3 beta (Homo sapiens, UniProt P49841). Description: Inhibition of GSK3-beta using 10 uM ATP.
The nature of test [3]: Inhibition of PDK1. Further details: species or system Homo sapiens.
The target of test [4] is T1, Serine/threonine-protein kinase Chk1 (Homo sapiens, UniProt O14757).
T1 sequence (O14757 whole entry): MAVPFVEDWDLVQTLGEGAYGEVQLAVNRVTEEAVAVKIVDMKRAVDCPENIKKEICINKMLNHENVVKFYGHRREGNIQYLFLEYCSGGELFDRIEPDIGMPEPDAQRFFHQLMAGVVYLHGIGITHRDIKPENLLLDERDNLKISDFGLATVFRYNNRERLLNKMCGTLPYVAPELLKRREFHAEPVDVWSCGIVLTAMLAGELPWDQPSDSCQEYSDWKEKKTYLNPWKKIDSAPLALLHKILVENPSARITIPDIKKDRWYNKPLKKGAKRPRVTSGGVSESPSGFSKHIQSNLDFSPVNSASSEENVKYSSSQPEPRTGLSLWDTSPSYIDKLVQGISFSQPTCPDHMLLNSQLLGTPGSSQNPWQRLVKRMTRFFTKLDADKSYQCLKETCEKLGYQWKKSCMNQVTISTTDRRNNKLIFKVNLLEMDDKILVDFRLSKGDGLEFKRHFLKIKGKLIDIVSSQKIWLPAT
Description: Inhibition of Chk1.

Another test concerns HCT-116. Description: Antiproliferative activity against HCT116 colon cancer cell line. It counts as functional. As to conditions: Homo sapiens.
Test [5] addresses Cyclin-dependent kinase 2 (Homo sapiens, UniProt P24941). Description: Inhibition of CDK2 using 100 uM ATP.

The structures appear in SMILES notation.

The IC50 is the midpoint of a concentration-inhibition curve. Read a low IC50 as greater potency in that assay. Broadly, the GI50 is the concentration that inhibits growth by half. Higher therefore signals less potent growth inhibition.

Glycogen synthase kinase-3 beta, sequence (P49841 whole entry): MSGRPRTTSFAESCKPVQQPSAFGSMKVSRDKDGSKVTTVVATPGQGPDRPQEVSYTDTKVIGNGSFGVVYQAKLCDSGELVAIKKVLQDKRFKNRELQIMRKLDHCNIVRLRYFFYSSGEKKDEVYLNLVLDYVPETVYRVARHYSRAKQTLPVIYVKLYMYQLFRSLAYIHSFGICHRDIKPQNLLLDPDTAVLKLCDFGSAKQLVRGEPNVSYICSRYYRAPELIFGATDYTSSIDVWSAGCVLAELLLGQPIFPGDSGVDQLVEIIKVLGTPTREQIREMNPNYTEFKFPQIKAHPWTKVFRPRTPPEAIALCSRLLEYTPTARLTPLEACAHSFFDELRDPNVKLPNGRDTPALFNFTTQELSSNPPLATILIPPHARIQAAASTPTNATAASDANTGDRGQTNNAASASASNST
Cyclin-dependent kinase 1, sequence (P06493 whole entry): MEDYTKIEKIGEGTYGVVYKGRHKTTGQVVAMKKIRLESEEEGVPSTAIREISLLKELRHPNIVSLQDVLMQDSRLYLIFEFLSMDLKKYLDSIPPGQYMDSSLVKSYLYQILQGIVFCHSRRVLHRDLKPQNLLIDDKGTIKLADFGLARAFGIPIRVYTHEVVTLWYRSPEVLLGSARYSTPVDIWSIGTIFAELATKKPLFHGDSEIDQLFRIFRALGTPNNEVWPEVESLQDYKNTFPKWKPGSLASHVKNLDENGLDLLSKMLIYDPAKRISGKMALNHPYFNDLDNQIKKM

In the case of `CN(C)S(=O)(=O)c1ccc(Nc2cc(N[C@H]3CC[C@H](N)CC3)nc3ncnn23)cc1`, the IC50 in test [1] is 5.6 µM; in test [2] it was 20 µM; in test [3] it was > 200 µM; in test [4], 21 µM; in test [5], 0.12 µM. The GI50 in the test on HCT-116 was > 80 µM.

Take `NS(=O)(=O)c1ccc(Nc2cc(OC3CCCCC3)nc3ncnn23)cc1`: the IC50 in test [1] was 0.14 µM; in test [2], 0.19 µM. This molecule returned a GI50 in the test on HCT-116 of 25 µM.

In test [2], `NS(=O)(=O)c1ccc(Nc2cc(NC3CCCCC3)nc3ncnn23)cc1` yielded an IC50 of 0.97 µM. This molecule gave a GI50 in the test on HCT-116 of 31 µM.

For `CCN(CC)c1cc(Nc2ccc(S(N)(=O)=O)cc2)n2ncnc2n1`, the values for the IC50 in test [1], in test [2] and in test [5] were 3.4 µM, 11 µM and 0.4 µM, respectively. This molecule also returned a GI50 in the test on HCT-116 of 23 µM.

`NS(=O)(=O)c1ccc(Nc2cc(N[C@H]3CC[C@H](O)CC3)nc3ncnn23)cc1`: in the test on HCT-116, halving of growth (GI50) required 39 µM.

For the molecule `Brc1cccc(-c2cc(NCc3ccncc3)n3nccc3n2)c1`, in the test with HCT-116, the GI50 was 8 µM.

In turn, `NS(=O)(=O)c1ccc(Nc2cc(OCC3CCCCC3)nc3ncnn23)cc1` came in with an IC50 in test [2] of 29 µM.

In the case of `CS(=O)(=O)c1ccc(Nc2cc(N[C@H]3CC[C@H](N)CC3)nc3ncnn23)cc1`, the half-inhibitory concentration (IC50) in test [1] was found to be 16 µM; in test [2] it was 43 µM. The GI50 in the test with HCT-116 is > 80 µM.

In the case of `NS(=O)(=O)c1ccc(Nc2nc(OCC3CCCCC3)c3nc[nH]c3n2)cc1`, the IC50 in test [2] is 0.04 µM; in test [3], < 0.5 µM; in test [4] it was < 0.5 µM.

`NS(=O)(=O)c1ccc(Nc2cc(N[C@H]3CC[C@H](N)CC3)nc3ncnn23)cc1`: the IC50 in test [2] turned out to be 0.78 µM; in test [3], 43 µM. The GI50 with HCT-116 is > 80 µM.

For the molecule `N[C@H]1CC[C@H](Nc2cc(Nc3ccc(S(=O)(=O)c4ccccc4)cc3)n3ncnc3n2)CC1`, the IC50 in test [1] is 4.3 µM; in test [2] it was 50 µM. Moreover, the GI50 in the test on HCT-116 is > 80 µM.

(Values after ChEMBL document CHEMBL1138980, “Triazolo[1,5-a]pyrimidines as novel CDK2 inhibitors: protein structure-guided design and SAR” (Bioorg Med Chem Lett, 2006).)
